Reference: US7445794B1, “Methods for treating human proliferative diseases, with a combination of fatty acid metabolism inhibitors and glycolytic inhibitors” (The Regents of the University of Colorado, priority 2004, dated 2008)

Tested on: HL60 MDR tumor
Assay: Tumor volume of HL60 MDR tumor implanted in nude mice
Type: in vivo
Conditions: for effect on tumor growth (in words): over the 21 day period, versus control
Source text: Mice were purchased from the Animal Production Program of National Cancer Institute, Frederick, Md. The animals used were Athymic Ncr-nu/nu (strain code 01B74). HL60 MDR cells were harvested and reconstituted at 1 million cells per 100 microliters of phosphate buffered saline. One million tumor cells per injection site were implanted subcutaneously on two sites of the animal's back. Treatments began at exactly seven days post tumor implantation. Tumor size/volume was monitored twice weekly using measurement calipers, with the formula Tumor Volume=π×(short diameter)^2×(long diameter)/6.
Treatment groups were: etomoxir at 200 micrograms/day; 2-deoxy-D-glucose at 2.5 mM in 100 microliters daily; and the combination daily of etomoxir at 200 micrograms and 2-deoxy-D-glucose at 2.5 mM in 100 microliters.
HL60 MDR human leukemia cells were cultured and implanted in nude mice as described above under “Materials and Methods”. The mice were given 200 ug of Etomoxir, 2.5 mM 2-Deoxy-D-glucose, or both 200 ug of Etomoxir and 2.5 mM 2-Deoxy-D-glucose given daily by IP injection. Treatment began exactly one week after tumor implantation.

Row | SMILES | effect on tumor growth (in words) | tumor volume Day 7 (Day 7 after implantation (start of daily IP treatment), etomoxir 200 ug, 2-deoxy-D-glucose 2.5 mM) [mm^3]
1 | OC[C@H]1O[C@H](O)CC(O)[C@@H]1O (stereo partly drawn) [2-deoxy-D-glucose] | increase in tumor growth | 
2 | CCOC(=O)C1(CCCCCCOc2ccc(Cl)cc2)CO1 (stereo not drawn) [etomoxir, 2-(6-(4-chlorophenoxy)-hexyl)-oxirane-2-carboxylic acid ethyl ester] | increase in tumor growth | 36
